Laboratory results from US12139520B2 (priority 2020, dated 2024).
Numbered stars: 1 amine (or outer) side, 2 acyl side, 3 side chain; on linkers, the order of the positions; unused ones are H or OH. Bridge positions count the residues as written; N and C are the ends. Square brackets hold non-standard residues; d marks the D form. Peptide text beside a SMILES is read from it. * marks the point of attachment. C20 diacid = O=C(O)CCCCCCCCCCCCCCCCCCC(=O)*; γGlu = O=C(O)[C@H](CCC(=O)[*:2])N[*:1]; Hyp = O=C(O)[C@@H]1C[C@@H](O)CN1; Trx = NC[C@H]1CC[C@H](C(=O)O)CC1; AEEA = NCCOCCOCC(=O)O

Experiments:
hAMY3 receptor = target: T1, hAMY3 receptor (Homo sapiens, UniProt O60896+P30988); test: cAMP assay for in vitro receptor activation, hAMY3-R; assay type: cell-based; settings: cAMP assay, hAMY3 receptor; read-out: hAMY3R EC50
T1 sequence (P30988 25-474): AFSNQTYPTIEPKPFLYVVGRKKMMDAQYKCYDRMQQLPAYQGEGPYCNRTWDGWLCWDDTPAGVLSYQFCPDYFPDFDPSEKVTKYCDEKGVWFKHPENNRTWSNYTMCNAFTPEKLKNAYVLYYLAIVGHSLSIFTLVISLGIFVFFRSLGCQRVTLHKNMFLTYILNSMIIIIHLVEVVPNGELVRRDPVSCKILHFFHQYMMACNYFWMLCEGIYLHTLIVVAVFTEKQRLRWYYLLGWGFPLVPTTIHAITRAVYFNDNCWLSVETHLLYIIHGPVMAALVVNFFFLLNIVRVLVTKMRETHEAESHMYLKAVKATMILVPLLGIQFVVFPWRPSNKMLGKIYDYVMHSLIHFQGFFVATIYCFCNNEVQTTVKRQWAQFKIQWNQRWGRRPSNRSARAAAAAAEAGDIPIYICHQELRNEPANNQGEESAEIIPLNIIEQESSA
T1 sequence (O60896 24-148 partner): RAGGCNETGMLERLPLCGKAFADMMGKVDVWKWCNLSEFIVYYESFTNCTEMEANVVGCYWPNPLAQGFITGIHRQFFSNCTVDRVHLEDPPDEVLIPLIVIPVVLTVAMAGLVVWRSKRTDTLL
Summary of the method: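 Monoclonal cell line stably overexpressing hAMY3 receptor, plated in DPBS with 0.05% casein and 0.5 mM IBMX, was stimulated with graded compound doses for 30 min at room temperature. cAMP accumulation was read by time-resolved FRET one hour after adding detection reagents.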

hAM1 receptor = hAM1 receptor (Homo sapiens, UniProt O60895+Q16602); test: cAMP assay for in vitro receptor activation, hAM1-R; assay type: cell-based; settings: cAMP assay, hAM1 receptor; read-out: hAM1R EC50
Chain of hAM1 receptor (Q16602 23-461): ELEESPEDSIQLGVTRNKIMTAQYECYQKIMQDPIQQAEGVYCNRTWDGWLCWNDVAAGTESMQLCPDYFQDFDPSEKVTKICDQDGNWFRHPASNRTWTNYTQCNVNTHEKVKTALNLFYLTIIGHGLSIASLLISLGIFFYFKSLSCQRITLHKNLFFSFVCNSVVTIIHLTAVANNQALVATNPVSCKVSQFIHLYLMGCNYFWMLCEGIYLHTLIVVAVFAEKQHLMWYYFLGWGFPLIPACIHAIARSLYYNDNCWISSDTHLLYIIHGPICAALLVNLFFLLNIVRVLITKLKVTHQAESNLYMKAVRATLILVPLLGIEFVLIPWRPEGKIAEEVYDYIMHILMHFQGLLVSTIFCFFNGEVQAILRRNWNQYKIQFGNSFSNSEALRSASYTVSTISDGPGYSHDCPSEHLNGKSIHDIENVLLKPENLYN
Chain of hAM1 receptor (O60895 43-175 partner): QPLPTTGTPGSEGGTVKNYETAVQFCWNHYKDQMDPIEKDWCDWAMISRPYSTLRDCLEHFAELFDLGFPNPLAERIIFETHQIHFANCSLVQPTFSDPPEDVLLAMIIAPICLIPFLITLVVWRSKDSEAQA
Summary of the method: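 cAMP accumulation was measured in a monoclonal cell line stably overexpressing the hAM1 receptor. Frozen aliquots were thawed and plated at 8000 cells/well in DPBS containing 0.05% casein and 0.5 mM IBMX.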

SMILES	EC50 (hAMY3 receptor) [nM]	EC50 (hAM1 receptor) [nM]
CC[C@H](C)[C@H](NC(=O)[C@H](CCC(N)=O)NC(=O)[C@H](Cc1c[nH]cn1)NC(=O)[C@H](C)NC(=O)[C@H](CC(C)C)NC(=O)[C@H](CCCNC(=N)N)NC(=O)[C@H](CCC(N)=O)NC(=O)[C@@H](NC(=O)[C@@H](NC(=O)[C@@H]1CSSC[C@H](NC(=O)[C@H](CCCCN)NC(=O)CC[C@H](NC(=O)CCCCCCCCCCCCCCCCCCC(=O)O)C(=O)O)C(=O)N[C@@H](CC(N)=O)C(=O)N[C@@H]([C@@H](C)O)C(=O)N[C@@H](C)C(=O)N[C@@H]([C@@H](C)O)C(=O)N1)[C@@H](C)O)C(C)C)C(=O)N[C@@H](C)C(=O)N[C@@H](CCC(N)=O)C(=O)N[C@@H](Cc1ccc(O)cc1)C(=O)N[C@H](C(=O)N[C@@H](CC(=O)O)C(=O)N[C@@H](CCCCN)C(=O)N[C@@H](CC(=O)O)C(=O)N[C@@H](CCCCN)C(=O)N[C@@H](CC(=O)O)C(=O)N[C@@H](CC(N)=O)C(=O)N[C@H](C(=O)N[C@@H](C)C(=O)N1CCC[C@H]1C(=O)N1CCC[C@H]1C(=O)N[C@H](C(=O)N[C@@H](CC(N)=O)C(=O)N[C@H](C(=O)NCC(=O)N[C@@H](CO)C(=O)N[C@@H](CC(N)=O)C(=O)NCC(=O)N1C[C@H](O)C[C@H]1C(N)=O)C(C)C)[C@@H](C)O)C(C)C)[C@@H](C)O [compound 71] ({C20 diacid-γGlu}-KCNTATCTVQRLAHQIAQYTDKDKDNVAPPTNVGSNG[Hyp]-NH2; disulfide 2-7)	0.013	> 5000
CC[C@H](C)[C@H](NC(=O)[C@H](CCC(N)=O)NC(=O)[C@H](Cc1c[nH]cn1)NC(=O)[C@H](C)NC(=O)[C@H](CC(C)C)NC(=O)[C@H](CCCNC(=N)N)NC(=O)[C@@H](NC(=O)[C@@H](NC(=O)[C@@H](NC(=O)[C@@H]1CSSC[C@H](NC(=O)[C@H](CCCCN)NC(=O)CC[C@H](NC(=O)CCCCCCCCCCCCCCCCCCC(=O)O)C(=O)O)C(=O)N[C@@H](CC(N)=O)C(=O)N[C@@H]([C@@H](C)O)C(=O)N[C@@H](C)C(=O)N[C@@H]([C@@H](C)O)C(=O)N1)[C@@H](C)O)C(C)C)[C@@H](C)CC)C(=O)N[C@@H](Cc1ccc(O)cc1)C(=O)N[C@@H](CCC(N)=O)C(=O)N[C@@H](Cc1ccccc1)C(=O)N[C@H](C(=O)N[C@@H](CC(=O)O)C(=O)N[C@@H](CCCCN)C(=O)N[C@@H](CC(=O)O)C(=O)N[C@@H](CCCCN)C(=O)N[C@@H](CC(=O)O)C(=O)N[C@@H](CC(N)=O)C(=O)N[C@H](C(=O)N[C@@H](C)C(=O)N1CCC[C@H]1C(=O)N1CCC[C@H]1C(=O)N[C@H](C(=O)N[C@@H](CC(N)=O)C(=O)N[C@H](C(=O)NCC(=O)N[C@@H](CO)C(=O)N[C@@H](CC(N)=O)C(=O)NCC(=O)N1C[C@H](O)C[C@H]1C(N)=O)C(C)C)[C@@H](C)O)C(C)C)[C@@H](C)O [compound 159] ({C20 diacid-γGlu}-KCNTATCTVIRLAHQIYQFTDKDKDNVAPPTNVGSNG[Hyp]-NH2; disulfide 2-7)	0.048	> 5000
CC[C@H](C)[C@H](NC(=O)[C@H](C)NC(=O)CNC(=O)[C@H](Cc1ccccc1)NC(=O)[C@H](CC(N)=O)NC(=O)[C@H](CC(N)=O)NC(=O)[C@H](CO)NC(=O)[C@H](CO)NC(=O)[C@H](Cc1c[nH]cn1)NC(=O)[C@@H](NC(=O)[C@H](CC(C)C)NC(=O)[C@H](Cc1ccccc1)NC(=O)[C@H](CC(N)=O)NC(=O)[C@H](C)NC(=O)[C@H](CC(C)C)NC(=O)[C@H](CCCNC(=N)N)NC(=O)[C@H](CCC(N)=O)NC(=O)[C@@H](NC(=O)[C@H](C)NC(=O)[C@@H]1CSSC[C@H](NC(=O)[C@@H](N)CCCCN)C(=O)N[C@@H](CC(N)=O)C(=O)N[C@@H]([C@@H](C)O)C(=O)N[C@@H](C)C(=O)N[C@@H]([C@@H](C)O)C(=O)N1)[C@@H](C)O)C(C)C)C(=O)N[C@@H](CC(C)C)C(=O)N1CCC[C@H]1C(=O)N[C@@H](CCCNC(=N)N)C(=O)N[C@H](C(=O)N[C@@H](CCCCN)C(=O)N[C@H](C(=O)NCC(=O)N[C@@H](CO)C(=O)N[C@@H](CC(N)=O)C(=O)NCC(=O)N[C@@H](Cc1ccc(O)cc1)C(N)=O)C(C)C)[C@@H](C)O [compound 19] (H-KCNTATCATQRLANFLVHSSNNFGAILPRTKVGSNGY-NH2; disulfide 2-7)	0.008	> 5000
CC[C@H](C)[C@H](NC(=O)[C@H](CCC(N)=O)NC(=O)[C@H](CCC(=O)O)NC(=O)[C@H](C)NC(=O)[C@H](CC(C)C)NC(=O)[C@H](CCCNC(=N)N)NC(=O)[C@H](CCC(N)=O)NC(=O)[C@@H](NC(=O)[C@@H](NC(=O)[C@@H]1CSSC[C@H](NC(=O)[C@H](CCCCN)NC(=O)COCCOCCNC(=O)COCCOCCNC(=O)CC[C@H](NC(=O)[C@H]2CC[C@H](CNC(=O)CCCCCCCCCCCCCCCCCCC(=O)O)CC2)C(=O)O)C(=O)N[C@@H](CC(N)=O)C(=O)N[C@@H]([C@@H](C)O)C(=O)N[C@@H](C)C(=O)N[C@@H]([C@@H](C)O)C(=O)N1)[C@@H](C)O)C(C)C)C(=O)N[C@@H](Cc1ccc(O)cc1)C(=O)N[C@@H](CCC(N)=O)C(=O)N[C@@H](Cc1ccccc1)C(=O)N[C@H](C(=O)N[C@@H](CC(=O)O)C(=O)N[C@@H](CCCCN)C(=O)N[C@@H](CC(=O)O)C(=O)N[C@@H](CCCCN)C(=O)N[C@@H](CC(=O)O)C(=O)N[C@@H](CC(N)=O)C(=O)N[C@H](C(=O)N[C@@H](C)C(=O)N1CCC[C@H]1C(=O)N1CCC[C@H]1C(=O)N[C@H](C(=O)N[C@@H](CC(N)=O)C(=O)N[C@H](C(=O)NCC(=O)N[C@@H](CO)C(=O)N[C@@H](CC(N)=O)C(=O)NCC(=O)N1C[C@H](O)C[C@H]1C(N)=O)C(C)C)[C@@H](C)O)C(C)C)[C@@H](C)O [compound 126] ({C20 diacid-Trx-γGlu-AEEA-AEEA}-KCNTATCTVQRLAEQIYQFTDKDKDNVAPPTNVGSNG[Hyp]-NH2; disulfide 2-7)	0.027	> 5000
CC[C@H](C)[C@H](NC(=O)[C@H](CCC(N)=O)NC(=O)[C@H](Cc1c[nH]cn1)NC(=O)[C@H](C)NC(=O)[C@H](CC(C)C)NC(=O)[C@H](CCCNC(=N)N)NC(=O)[C@H](CCC(N)=O)NC(=O)[C@@H](NC(=O)[C@@H](NC(=O)[C@@H]1CSSC[C@H](NC(=O)[C@@H](N)CCCCN)C(=O)N[C@@H](CC(N)=O)C(=O)N[C@@H]([C@@H](C)O)C(=O)N[C@@H](C)C(=O)N[C@@H]([C@@H](C)O)C(=O)N1)[C@@H](C)O)C(C)C)C(=O)N[C@@H](Cc1ccc(O)cc1)C(=O)N[C@@H](CCC(N)=O)C(=O)N[C@@H](Cc1ccccc1)C(=O)N[C@H](C(=O)N[C@@H](CC(=O)O)C(=O)N[C@@H](CCCCN)C(=O)N[C@@H](CC(=O)O)C(=O)N[C@@H](CCCCN)C(=O)N[C@@H](CC(=O)O)C(=O)N[C@@H](CC(N)=O)C(=O)N[C@H](C(=O)N[C@@H](C)C(=O)N1CCC[C@H]1C(=O)N[C@@H](CCCNC(=N)N)C(=O)N[C@H](C(=O)N[C@@H](CCC(=O)O)C(=O)N[C@H](C(=O)NCC(=O)N[C@@H](CO)C(=O)N[C@@H](CC(N)=O)C(=O)NCC(=O)N[C@@H](Cc1ccc(O)cc1)C(N)=O)C(C)C)[C@@H](C)O)C(C)C)[C@@H](C)O [compound 102] (H-KCNTATCTVQRLAHQIYQFTDKDKDNVAPRTEVGSNGY-NH2; disulfide 2-7; N-terminus assumed)	0.018	> 5000
CC[C@H](C)[C@H](NC(=O)[C@H](CCCCN)NC(=O)[C@H](CO)NC(=O)[C@H](CCCNC(=N)N)NC(=O)[C@@H]1CCCN1C(=O)[C@H](C)NC(=O)[C@@H](NC(=O)[C@H](CC(N)=O)NC(=O)[C@H](CC(=O)O)NC(=O)[C@H](CCCCN)NC(=O)[C@H](CC(=O)O)NC(=O)[C@H](CCCCN)NC(=O)[C@H](CC(=O)O)NC(=O)[C@@H](NC(=O)[C@H](Cc1ccccc1)NC(=O)[C@H](CCC(N)=O)NC(=O)[C@H](Cc1ccc(O)cc1)NC(=O)[C@@H](NC(=O)[C@H](CCC(N)=O)NC(=O)[C@H](Cc1c[nH]cn1)NC(=O)[C@H](C)NC(=O)[C@H](CC(C)C)NC(=O)[C@H](CCCNC(=N)N)NC(=O)[C@H](CCC(N)=O)NC(=O)[C@@H](NC(=O)[C@@H](NC(=O)[C@@H]1CSSC[C@H](NC(=O)CN)C(=O)N[C@@H](CCCNC(=N)N)C(=O)N[C@@H](Cc2ccccc2)C(=O)NCC(=O)N[C@@H]([C@@H](C)O)C(=O)N1)[C@@H](C)O)C(C)C)[C@@H](C)CC)[C@@H](C)O)C(C)C)C(=O)NCC(=O)N1CCC[C@H]1C(=O)N[C@@H](CCC(N)=O)C(=O)NCC(=O)N1C[C@H](O)C[C@H]1C(N)=O [compound 127] (H-GCRFGTCTVQRLAHQIYQFTDKDKDNVAPRSKIGPQG[Hyp]-NH2; disulfide 2-7; N-terminus assumed)	0.028	107
